Laboratory results published in US20230285405A1, “Pharmaceuticals for Treating or Preventing Nidoviruses and Picornaviruses” (priority 2020, published 2023).
Structures can show the parent of a compound that is named as a salt. Where two headings read alike, the source gives them in different places.

How the values were obtained:
OC43 [1] = experiment: Drug screening: OC43 nucleoprotein staining in infected A549-mRuby cells; type: cell-based, human beta coronavirus OC43; conditions: for activity at 10 µM: Betacoronavirus 1, OC43, 96 h
Procedure, shortened: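 Repurposing screen: drugs at 10 μM final added 1 h after OC43 infection (MOI 0.3) of H2B-mRuby A549 cells, 4-day incubation at 33° C. Cell counts imaged at day 0 and day 4; nucleoprotein staining per cell normalized to untreated infected wells, hit threshold >3 SD in duplicate screens, non-toxic.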

A549-mRuby cells = experiment: Drug screening: effect on cell growth (cell number day 4 / day 0); conditions: 10 μM drug; for Growth_1: number of cells at day 4 divided by number of cells at day 0 / toxic_1: repeat #1; for Growth_2: number of cells at day 4 divided by number of cells at day 0 / toxic_2: repeat #2
Procedure, shortened: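 Growth was scored as day 4/day 0 cell count from images of OC43-infected (MOI 0.3) A549-mRuby nuclear-reporter cells. Compounds were added at 10 μM final after a 1 h infection at 33° C, followed by 4 days of culture at 33° C in two independent screens.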

OC43 [2] = experiment: Dose-response analysis of OC43 infection; type: cell-based, human beta coronavirus OC43
Method: Dose-response analysis of OC43 infection was done similarly to the drug screening, except cells were seeded at a concentration of 5,000 cells per well and the media contained 2% BCS instead of 10% BCS. OC43 staining was performed 2 days after infection and analyzed similarly to what was described for the drug screening. A sigmoid fit was used to extract EC50 values using Matlab.

SARS-CoV-2 = experiment: microbe, parasite or virus in culture; type: cell-based, SARS-CoV-2 (nCoV/Washington/1/2020)
[3] = 10 μM drug, MOI 0.3, 4 days, OC43 staining normalized to no-drug controls, mean of the two screen repeats
[4] = 10 μM drug, MOI 0.3, 4 days, normalized to no-drug controls in the same plate, repeat #1
[5] = 10 μM drug, MOI 0.3, 4 days, normalized to no-drug controls in the same plate, repeat #2
[6] = A549-mRuby cells, staining 2 days after infection, read-out: EC50 OC43
[7] = 10 μM drug, MOI 0.3, 4 days, OC43 staining normalized to no-drug controls, mean of the two screen repeats, read-out: OC43_mean
[8] = 10 μM drug, MOI 0.3, 4 days, normalized to no-drug controls in the same plate, repeat #1, read-out: OC43_1: % staining of OC43 in screen repeat #1
[9] = 10 μM drug, MOI 0.3, 4 days, normalized to no-drug controls in the same plate, repeat #2, read-out: OC43_2: % staining of OC43 in screen repeat #2
[10] = Betacoronavirus 1, OC43, 48 h, read-out: EC50 OC43, A549-mRuby cells, staining 2 days after infection
[11] = Severe acute respiratory syndrome coronavirus 2; read-out: EC50 SARS2

Compound	hit_1 (OC43 [1]; 10 μM drug, repeat #1)	hit_2 (OC43 [1]; 10 μM drug, repeat #2)	Growth_1: number of cells at day 4 divided by number of cells at day 0 (A549-mRuby cells)	toxic_1 (A549-mRuby cells)	Growth_2: number of cells at day 4 divided by number of cells at day 0 (A549-mRuby cells)	toxic_2 (A549-mRuby cells)	activity at 10 µM (OC43 [1]; [7])	activity at 10 µM (OC43 [1]; [8])	activity at 10 µM (OC43 [1]; [9])	EC50 (OC43 [2]; [10])	EC50 (SARS-CoV-2; [11])	also measured
C[C@@H]1[C@H](O)[C@@H](C)/C=C/C=C/C=C/C=C/C=C/C=C/C=C/[C@H](O[C@@H]2O[C@H](C)[C@@H](O)[C@H](N)[C@@H]2O)C[C@@H]2O[C@](O)(C[C@@H](O)C[C@@H](O)[C@H](O)CC[C@@H](O)C[C@@H](O)CC(=O)O[C@H]1C)C[C@H](O)[C@H]2C(=O)O [Amphotericin B]	1	1	4.3	0	5.8	0	–	–	–	–	–	OC43_mean (OC43 [1]; [3]): 6.6%; OC43_1: % staining of OC43 in screen repeat #1 (OC43 [1]; [4]): 1.5%; OC43_2: % staining of OC43 in screen repeat #2 (OC43 [1]; [5]): 11.8%; EC50 (OC43 [2]; [6]): 0.04 µM; inhibition of SARS-CoV-2 infection (in words) (SARS-CoV-2): did not inhibit SARS-CoV-2 infection; EC50 (SARS-CoV-2; read-out: EC50 SARS2): > 1 µM
CN1CCCC(n2nc(Cc3ccc(Cl)cc3)c3ccccc3c2=O)CC1.O (centres unmarked) [Azelastine HCl]	1	1	4.1	0	3.2	0	19.1%	19.6%	18.5%	3.7 µM	2.4 µM	inhibition of OC43 infection (in words) (OC43 [2]; dose-response): inhibits; inhibition of SARS-CoV-2 infection (in words) (SARS-CoV-2): inhibits
CCCCOC(=O)c1ccc(N)cc1 [Butamben]	1	1	3.9	0	4.7	0	4.9%	3.8%	6.1%	3.1 µM	> 10 µM	–
CCCCOC(=O)c1ccc(O)cc1 [Butylparaben]	1	1	3.3	0	3.6	0	5.2%	7%	3.5%	1.7 µM	> 10 µM	–
COc1cc2c(Oc3ccc4[nH]c(C)cc4c3F)ncnc2cc1OCCCN1CCCC1 [Cediranib (AZD2171), Cediranib]	1	1	2.6	0	2.4	0	19%	17.8%	20.2%	0.52 µM	3.6 µM	EC50 (OC43 [2]; read-out: EC50 OC43, A549-mRuby cells, staining 2 days after infection): 0.5 µM
COc1ccc2cc1Oc1ccc(cc1)C[C@H]1c3c(cc4c(c3Oc3cc5c(cc3OC)CCN(C)[C@@H]5C2)OCO4)CCN1C [Cepharanthine]	1	1	4.3	0	4.7	0	20.3%	28.5%	12.1%	0.77 µM	0.13 µM	–
COC(=O)N[C@H](C(=O)N1CCC[C@H]1c1ncc(-c2ccc3c(c2)O[C@@H](c2ccccc2)n2c-3cc3cc(-c4cnc([C@@H]5CCCN5C(=O)[C@@H](NC(=O)OC)C(C)C)[nH]4)ccc32)[nH]1)C(C)C [Elbasvir]	1	1	4.7	0	5.3	0	20.1%	18.8%	21.4%	0.17 µM	> 10 µM	inhibition of SARS-CoV-2 infection (in words) (SARS-CoV-2): did not inhibit SARS-CoV-2 infection
OCCN1CCN(CC/C=C2/c3ccccc3Sc3ccc(C(F)(F)F)cc32)CC1 [Flupenthixol dihydrochloride]	–	–	–	–	–	–	–	–	–	–	–	EC50 (OC43 [2]; read-out: EC50 OC43): 1.8 µM; EC50 (SARS-CoV-2; read-out: EC50 SARS2): 0.56 µM
CN(C)CCCN1c2ccccc2CCc2ccccc21.O [Imipramine HCl]	1	1	4.0	0	4.2	0	–	6.7%	22.3%	6 µM	–	activity at 10 µM (OC43 [1]; read-out: OC43_mean, 10 μM drug, MOI 0.3, 4 days, OC43 staining normalized to no-drug controls, mean of the two screen repeats): 14.5%
CCN(CCCCOC(=O)c1ccc(OC)c(OC)c1)C(C)Cc1ccc(OC)cc1.O (centres unmarked) [Mebeverine Hydrochloride]	1	1	5.2	0	3.9	0	20%	20.1%	19.9%	5 µM	10 µM	–
CNCCC=C1c2ccccc2CCc2ccccc21.O [Nortriptyline hydrochloride]	1	1	4.2	0	3.1	0	19.6%	25.2%	14%	7.5 µM	–	EC50 (SARS-CoV-2; Severe acute respiratory syndrome coronavirus 2, read-out: EC50 SARS2): 3.2 µM
CCN(CC)CCOCCOC(=O)C1(c2ccccc2)CCCC1.O=C(O)CC(O)(CC(=O)O)C(=O)O [Pentoxyverine Citrate]	1	1	5.0	0	5.7	0	9.3%	10.8%	7.7%	5.5 µM	3.6 µM	–
CCCNCC(O)COc1ccccc1C(=O)CCc1ccccc1.O (centres unmarked) [Propafenone HCl]	1	1	4.7	–	3.4	–	19.8%	20.4%	19.2%	7.3 µM	3.7 µM	–
CCC(CC)COC(=O)[C@H](C)N[P@](=O)(OC[C@H]1O[C@@](C#N)(c2ccc3c(N)ncnn23)[C@H](O)[C@@H]1O)Oc1ccccc1 [Remdesivir]	–	–	–	–	–	–	–	–	–	–	0.1 µM	EC50 (OC43 [2]; [6]): 0.96 µM; EC50 (OC43 [2]; Betacoronavirus 1, OC43, 48 h, A549-mRuby cells, staining 2 days after infection, read-out: EC50 OC43): 0.9 µM
Cc1ccc(O)c([C@H](CCN(C(C)C)C(C)C)c2ccccc2)c1.O=C(O)C(O)C(O)C(=O)O [Tolterodine tartrate]	1	1	5.0	0	5.1	0	16.6%	21.7%	11.6%	7 µM	–	–
CC(CN(C)C)CN1c2ccccc2CCc2ccccc21 (centres unmarked) [Trimipramine maleate]	–	–	–	–	–	–	–	–	–	3.8 µM	1.5 µM	–
Erythromycin Cyclocarbonate	1	1	5.7	0	6.0	0	–	–	–	–	–	OC43_mean (OC43 [1]; [3]): 18.9%; OC43_1: % staining of OC43 in screen repeat #1 (OC43 [1]; [4]): 16.7%; OC43_2: % staining of OC43 in screen repeat #2 (OC43 [1]; [5]): 21.1%; EC50 (OC43 [2]; [6]): > 10 µM
Pizotifen Malate	1	1	3.4	0	2.8	0	–	–	–	–	–	OC43_mean (OC43 [1]; [3]): 25.4%; OC43_1: % staining of OC43 in screen repeat #1 (OC43 [1]; [4]): 33.3%; OC43_2: % staining of OC43 in screen repeat #2 (OC43 [1]; [5]): 17.5%
Prochlorperazine dimaleate salt	1	1	3.1	0	3.1	0	–	–	–	–	–	OC43_mean (OC43 [1]; [3]): 40.2%; OC43_1: % staining of OC43 in screen repeat #1 (OC43 [1]; [4]): 47.2%; OC43_2: % staining of OC43 in screen repeat #2 (OC43 [1]; [5]): 33.1%
